This is an account of results in paper PMC13288994, “Identification and characterization of novel chikungunya virus polymerase inhibitors” (Journal of Virology, 2026).

Series [1] concerns VEEV-TC83-nLuc. The series can be described thus: microbe, parasite or virus in culture. It is filed as cell-based. The conditions noted are these: Venezuelan equine encephalitis virus, Vero C1008, read-out: Antiviral potency (EC50 [µM]) VEEV.
For series [2], the system named is CHIKV-nLuc (181/25 strain). In words: microbe, parasite or virus in culture. The series is classed as cell-based, Chikungunya virus. The note with it: Chikungunya virus, 384-well format, read 20 h after infection, read-out: Normalized percent inhibition in primary screen.
Series [3] in a line: in vitro. The note with it: human.
Series [4] concerns SINV-GLuc. In words: microbe, parasite or virus in culture. The note with it: Sindbis virus, Vero C1008; VeroE6 cells; read-out: Antiviral potency (EC50 [µM]) SINV. It is filed as cell-based.
The subject of series [5] is SARS-CoV-2-nLuc. In words: microbe, parasite or virus in culture. The conditions noted are these: Severe acute respiratory syndrome coronavirus 2; VeroE6-TMPRSS2 cells; read-out: Antiviral potency (EC50 [µM]) SARS-CoV-2. The series is classed as cell-based.
Series [6] has as its system HPIV3-nLuc. The series can be described thus: microbe, parasite or virus in culture. The series is classed as cell-based. The note with it: Human respirovirus 3, Vero C1008; VeroE6 cells; read-out: Antiviral potency (EC50 [µM]) HPIV3.
Series [7] has as its system RSV A2-L19F. The series can be described thus: microbe, parasite or virus in culture. It is filed as cell-based. The note with it: human respiratory syncytial virus; Hep-2 cells; read-out: Antiviral potency (EC50 [µM]) RSV.
A short description of series [8]: in vitro. The conditions noted are these: African green monkey.
Series [9] has as its system VSV-nLuc. In words: microbe, parasite or virus in culture. The series is classed as cell-based. The conditions noted are these: Vesicular stomatitis virus, Vero C1008, read-out: Antiviral potency (EC50 [µM]) VSV.
For series [10], the system named is CHIKV replicon. In words: microbe, parasite or virus in culture. The note with it: Chikungunya virus, U2OS, read-out: Antiviral potency (EC50 [µM]) CHKV replicon. On the technique in general: Replicon systems follow genome replication, usually without infectious particles.
Series [11] has as its system MAYV. The series can be described thus: microbe, parasite or virus in culture. It is filed as cell-based, Mayaro virus. The conditions noted are these: Mayaro virus, U2OS, read-out: EC50 virus production, MAYV.
The test system of series [12] is SINV. The series can be described thus: microbe, parasite or virus in culture. It is filed as cell-based, Sindbis virus. The note with it: Sindbis virus, U2OS, read-out: EC50 virus production, SINV.
The test system of series [13] is CHIKV 181/25. In words: Virus yield dose-response in U-2 OS cells, CHIKV. The series is classed as cell-based, Chikungunya virus. The note with it: Chikungunya virus, U2OS.
Series [14] addresses T1, CHIKV trans-replicase (P1234) (Chikungunya virus, UniProt Q8JUX6).
T1 construct: expression of the P1234 polyprotein drives replication of a reporter RNA template; expressed in transfected cells; host or cells: U-2 OS
The series can be described thus: Trans-replicase assay, CHIKV. The series is classed as cell-based. The note with it: 100 µM, U-2 OS, 20 h. The procedure:
(§1) U-2 OS cells were seeded at 75,000 cells per well in 24-well plates and cultured for 24 h. Cells were then co-transfected with 250 ng of plasmid encoding template RNA and 250 ng of plasmid encoding P1234 WT ([72], [73]), using Lipofectamine LTX with PLUS reagent (ThermoFisher Scientific) following the manufacturer’s instructions. After 4 h of post-transfection, medium containing 100 µM of compounds or DMSO was added to the cells. Cells were then incubated for 20 h, lysed, and GLuc activity was quantified using the Dual-Luciferase Reporter Assay System (Promega). Luciferase activities were normalized to those of the DMSO-treated controls.

For series [15], the system named is RRV. In words: microbe, parasite or virus in culture. The series is classed as cell-based, Ross River virus. The note with it: Ross River virus, U2OS, read-out: EC50 virus production, RRV.
Series [16] concerns the target EEEV trans-replicase (P1234) (Eastern equine encephalitis virus, UniProt Q306W6). The series is classed as cell-based.
Series [17] concerns the target T2, MAYV trans-replicase (P1234) (Mayaro virus, UniProt Q8QZ73).
T2 construct: expression of the P1234 polyprotein drives replication of a reporter RNA template; expressed in transfected cells; host or cells: U-2 OS
In words: Trans-replicase assay, MAYV. The conditions noted are these: 100 µM, U-2 OS, 20 h. It is filed as cell-based. The procedure:
as §1

Series [18] deals with T3, SINV trans-replicase (P1234) (Sindbis virus, UniProt P03317).
T3 construct: expression of the P1234 polyprotein drives replication of a reporter RNA template; expressed in transfected cells; host or cells: U-2 OS
The series can be described thus: Trans-replicase assay, SINV. It is filed as cell-based. The conditions noted are these: 100 µM, U-2 OS, 20 h. On the procedure:
as §1

Series [19] addresses T4, ONNV trans-replicase (P1234) (O'nyong-nyong virus, UniProt P13886).
T4 construct: expression of the P1234 polyprotein drives replication of a reporter RNA template; expressed in transfected cells; host or cells: U-2 OS
In words: Trans-replicase assay, ONNV. The note with it: 100 µM, U-2 OS, 20 h. It is filed as cell-based. The procedure:
as §1

Series [20] deals with T5, SFV trans-replicase (P1234) (Semliki forest virus, UniProt P08411).
T5 construct: expression of the P1234 polyprotein drives replication of a reporter RNA template; expressed in transfected cells; host or cells: U-2 OS
In words: Trans-replicase assay, SFV. The series is classed as cell-based. The note with it: 100 µM, U-2 OS, 20 h. The procedure:
as §1

For series [21], the target named is T6, RRV trans-replicase (P1234) (Ross river virus, UniProt P13887).
T6 construct: expression of the P1234 polyprotein drives replication of a reporter RNA template; expressed in transfected cells; host or cells: U-2 OS
The series can be described thus: Trans-replicase assay, RRV. The series is classed as cell-based. The conditions noted are these: 100 µM, U-2 OS, 20 h. On the procedure:
as §1

The test system of series [22] is CHIKV-nLuc. In words: microbe, parasite or virus in culture. It is filed as cell-based, Chikungunya virus.
A short description of series [23]: Cytotoxicity assay (PrestoBlue, 24 h) in U-2 OS cells. It is filed as cell-based, Human. The conditions noted are these: human, U-2 OS cells.
Series [24] deals with ONNV. In words: organism not typed. The series is classed as cell-based, o'nyong-nyong virus. The conditions noted are these: U2OS, read-out: EC50 virus production, ONNV.
For series [25], the system named is CHIKV. The series can be described thus: Selection for viral resistance by serial passage in U-2 OS cells, whole-genome sequencing. The conditions noted are these: passage 1, MOI 1 FFU/cell, 16 h. It is filed as cell-based, Chikungunya virus.
For series [26], the system named is SFV. The series can be described thus: microbe, parasite or virus in culture. The series is classed as cell-based, Semliki Forest virus. The note with it: Semliki Forest virus, U2OS, read-out: EC50 virus production, SFV.
Series [27] in a line: Cytotoxicity assay (PrestoBlue, 24 h) in NHDF cells. The series is classed as cell-based, Human. The conditions noted are these: human, NHDF cells. On the procedure: NHDF cells were seeded at 10,000 cells per well in 24-well plates and cultured for 24 h. Cells were then treated with threefold serial dilutions of compounds starting at 500 µM and incubated for 24 h. DMSO was included as a negative control for normalization. Following treatment, cells were incubated with PrestoBlue reagent (ThermoFisher Scientific) for 1 h at 37°C, and fluorescence was measured using a PerkinElmer Victor X5 multilabel plate reader. The CC50 values were determined by normalized non-linear regression with a variable slope model in Prism (GraphPad).

The test system of series [28] is CHIKV-nLuc. The series is classed as cell-based, Chikungunya virus. The note with it: 20 µM, U-2 OS, reporter read at 24 h.
Series [29] addresses T7, BFV trans-replicase (P1234) (Barmah forest virus, UniProt P87515).
T7 construct: expression of the P1234 polyprotein drives replication of a reporter RNA template; expressed in transfected cells; host or cells: U-2 OS
The series can be described thus: Trans-replicase assay, BFV. The series is classed as cell-based. The conditions noted are these: 100 µM, U-2 OS, 20 h. On the procedure: as §1

The target in series [30] is VEEV trans-replicase (P1234) (Venezuelan equine encephalitis virus, UniProt P36328). The series is classed as cell-based.
Series [31] concerns CHIKV-nLuc. In words: microbe, parasite or virus in culture. The series is classed as cell-based, Chikungunya virus. The note with it: Chikungunya virus, U2OS; MOI 0.1 FFU/cell, 24 hpi, in-house synthesized compound; read-out: EC50 CHIKV-nLuc, U-2 OS.

Each structure is given as a SMILES string. Like-named read-outs stand apart in the source and are kept apart here.

One may read the EC50 as the concentration at which the effect is half-maximal. As a reminder, the inhibition is the change of the read-out against control, counted positive when it falls.

T1 sequence (Q8JUX6 1-535): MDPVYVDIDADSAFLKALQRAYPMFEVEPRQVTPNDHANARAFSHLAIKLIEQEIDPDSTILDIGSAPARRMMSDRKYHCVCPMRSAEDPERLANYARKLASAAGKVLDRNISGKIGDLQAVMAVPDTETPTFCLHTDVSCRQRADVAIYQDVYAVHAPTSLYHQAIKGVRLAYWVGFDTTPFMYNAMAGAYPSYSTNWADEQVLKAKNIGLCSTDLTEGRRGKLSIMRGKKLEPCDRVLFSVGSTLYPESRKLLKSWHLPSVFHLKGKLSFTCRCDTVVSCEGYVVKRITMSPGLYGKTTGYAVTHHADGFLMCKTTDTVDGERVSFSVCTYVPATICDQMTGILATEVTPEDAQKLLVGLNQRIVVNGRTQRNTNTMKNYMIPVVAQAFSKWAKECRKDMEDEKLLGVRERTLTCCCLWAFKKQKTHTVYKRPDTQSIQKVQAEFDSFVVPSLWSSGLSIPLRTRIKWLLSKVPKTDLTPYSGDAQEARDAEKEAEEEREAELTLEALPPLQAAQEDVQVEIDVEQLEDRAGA
T1 sequence (Q8JUX6 536-1333): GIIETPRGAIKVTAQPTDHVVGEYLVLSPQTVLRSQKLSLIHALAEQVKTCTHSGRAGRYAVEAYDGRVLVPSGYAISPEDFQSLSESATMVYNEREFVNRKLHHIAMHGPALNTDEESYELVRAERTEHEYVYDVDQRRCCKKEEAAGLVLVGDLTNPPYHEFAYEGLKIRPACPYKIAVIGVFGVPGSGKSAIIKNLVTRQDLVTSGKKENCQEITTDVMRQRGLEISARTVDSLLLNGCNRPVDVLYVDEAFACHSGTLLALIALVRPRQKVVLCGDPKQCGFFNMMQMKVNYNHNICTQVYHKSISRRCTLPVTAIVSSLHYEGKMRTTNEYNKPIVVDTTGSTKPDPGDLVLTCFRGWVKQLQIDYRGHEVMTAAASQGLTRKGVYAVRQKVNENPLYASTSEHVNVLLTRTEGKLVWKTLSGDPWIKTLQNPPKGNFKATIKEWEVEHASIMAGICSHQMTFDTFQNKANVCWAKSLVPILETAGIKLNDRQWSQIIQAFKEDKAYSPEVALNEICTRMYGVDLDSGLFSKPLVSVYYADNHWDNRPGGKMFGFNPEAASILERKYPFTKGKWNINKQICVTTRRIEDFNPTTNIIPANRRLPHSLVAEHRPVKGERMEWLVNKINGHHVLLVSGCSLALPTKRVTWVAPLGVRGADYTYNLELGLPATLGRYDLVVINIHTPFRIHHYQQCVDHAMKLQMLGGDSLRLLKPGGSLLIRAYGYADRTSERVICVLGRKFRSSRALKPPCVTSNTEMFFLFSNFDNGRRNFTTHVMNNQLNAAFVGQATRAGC
T1 sequence (Q8JUX6 whole entry): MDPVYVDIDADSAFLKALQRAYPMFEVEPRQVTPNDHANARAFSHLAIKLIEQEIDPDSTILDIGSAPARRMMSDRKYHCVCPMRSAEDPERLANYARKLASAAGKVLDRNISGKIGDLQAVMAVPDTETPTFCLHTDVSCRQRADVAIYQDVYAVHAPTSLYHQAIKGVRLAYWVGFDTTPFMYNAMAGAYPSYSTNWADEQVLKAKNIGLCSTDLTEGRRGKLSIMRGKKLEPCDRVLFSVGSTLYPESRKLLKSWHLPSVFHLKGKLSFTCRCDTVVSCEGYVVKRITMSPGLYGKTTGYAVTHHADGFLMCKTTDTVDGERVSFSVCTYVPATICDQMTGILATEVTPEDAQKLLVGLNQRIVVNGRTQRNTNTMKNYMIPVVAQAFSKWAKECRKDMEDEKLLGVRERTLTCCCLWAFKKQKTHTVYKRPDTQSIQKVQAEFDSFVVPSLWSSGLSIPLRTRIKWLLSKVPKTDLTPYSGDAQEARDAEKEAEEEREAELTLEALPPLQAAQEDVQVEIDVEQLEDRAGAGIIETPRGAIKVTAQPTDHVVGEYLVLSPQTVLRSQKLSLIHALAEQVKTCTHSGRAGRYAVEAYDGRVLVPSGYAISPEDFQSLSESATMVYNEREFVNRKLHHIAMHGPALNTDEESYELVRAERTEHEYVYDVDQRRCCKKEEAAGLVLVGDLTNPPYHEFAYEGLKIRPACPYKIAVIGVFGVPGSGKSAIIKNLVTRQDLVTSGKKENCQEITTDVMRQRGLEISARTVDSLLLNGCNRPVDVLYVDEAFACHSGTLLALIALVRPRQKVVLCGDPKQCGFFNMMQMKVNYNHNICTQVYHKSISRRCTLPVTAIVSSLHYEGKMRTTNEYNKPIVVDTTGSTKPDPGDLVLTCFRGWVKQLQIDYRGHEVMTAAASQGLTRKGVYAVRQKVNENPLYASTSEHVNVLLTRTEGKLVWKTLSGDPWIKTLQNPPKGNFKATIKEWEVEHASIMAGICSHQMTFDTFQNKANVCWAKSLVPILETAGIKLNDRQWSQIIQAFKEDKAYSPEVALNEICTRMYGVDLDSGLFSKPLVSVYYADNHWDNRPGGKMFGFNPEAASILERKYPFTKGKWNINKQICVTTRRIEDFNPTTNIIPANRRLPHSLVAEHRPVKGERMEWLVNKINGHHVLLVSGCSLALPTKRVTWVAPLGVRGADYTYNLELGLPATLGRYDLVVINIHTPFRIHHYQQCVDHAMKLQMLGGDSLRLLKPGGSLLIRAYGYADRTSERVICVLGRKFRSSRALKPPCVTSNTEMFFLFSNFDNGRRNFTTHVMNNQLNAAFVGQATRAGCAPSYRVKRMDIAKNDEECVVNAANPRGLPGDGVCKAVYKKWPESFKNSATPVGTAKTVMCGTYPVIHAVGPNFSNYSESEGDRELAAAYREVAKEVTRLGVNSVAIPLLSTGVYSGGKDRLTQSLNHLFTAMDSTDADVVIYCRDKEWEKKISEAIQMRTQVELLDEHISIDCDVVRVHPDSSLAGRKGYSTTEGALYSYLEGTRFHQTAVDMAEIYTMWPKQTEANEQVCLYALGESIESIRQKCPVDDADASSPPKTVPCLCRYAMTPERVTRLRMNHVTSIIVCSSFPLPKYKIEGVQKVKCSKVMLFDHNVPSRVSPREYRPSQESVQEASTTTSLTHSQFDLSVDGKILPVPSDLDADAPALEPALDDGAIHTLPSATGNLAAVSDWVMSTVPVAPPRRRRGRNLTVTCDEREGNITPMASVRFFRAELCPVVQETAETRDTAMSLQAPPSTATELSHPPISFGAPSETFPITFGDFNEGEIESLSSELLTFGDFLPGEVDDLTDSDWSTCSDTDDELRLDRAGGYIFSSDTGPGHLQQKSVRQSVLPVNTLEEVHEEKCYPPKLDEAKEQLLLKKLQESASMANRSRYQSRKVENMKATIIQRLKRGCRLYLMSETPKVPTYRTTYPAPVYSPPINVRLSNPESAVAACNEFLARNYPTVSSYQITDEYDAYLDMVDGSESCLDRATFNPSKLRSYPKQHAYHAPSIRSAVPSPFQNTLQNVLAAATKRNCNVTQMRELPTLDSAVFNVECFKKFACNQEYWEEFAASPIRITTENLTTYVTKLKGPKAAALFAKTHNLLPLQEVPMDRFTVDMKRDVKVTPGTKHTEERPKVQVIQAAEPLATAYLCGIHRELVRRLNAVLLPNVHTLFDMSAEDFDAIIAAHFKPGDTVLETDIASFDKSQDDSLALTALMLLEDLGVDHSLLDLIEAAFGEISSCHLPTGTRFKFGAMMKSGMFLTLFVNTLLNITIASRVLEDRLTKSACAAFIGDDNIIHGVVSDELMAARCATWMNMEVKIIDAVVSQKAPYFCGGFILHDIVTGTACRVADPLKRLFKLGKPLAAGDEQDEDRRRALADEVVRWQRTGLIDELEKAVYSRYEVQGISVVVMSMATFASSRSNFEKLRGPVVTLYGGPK

Consider `Cn1nc(CN(C(=O)c2ccc(F)cc2)c2ccccc2)c2c1CCN(S(=O)(=O)Cc1ccccc1F)C2` [GAP-1081237], for which the EC50 in [1] is 10 µM; in [4], 65.7 µM; in series [5], greater than 100 µM; in series [6], 64.9 µM; in series [7], greater than 10 µM; in series [9] it was 65.2 µM. In addition, the EC50 in series [10] stood at 12.4 µM. Also, the inhibition at 5 µM in series [2] was determined as 80.2%. Also, the CC50 in series [3] and in [8] was greater than 100 µM in each case.

On to `O=C(CN1C(=O)CNC1=O)NCc1n[nH]c2c1CCCCC2` [GAP-1173149, 2-(2,5-dioxoimidazolidin-1-yl)-N-(1,4,5,6,7,8-hexahydrocyclohepta[d]pyrazol-3-ylmethyl)acetamide], for which the EC50 in series [11] was greater than 100 µM; in series [12] it was greater than 100 µM; in series [13] (MOI 0.1, supernatant 24 hpi titered by FFA (Fig. 5), read-out: EC50 virus production, CHIKV), 10.2 ± 0.95 µM; in series [13] (resistance study (Fig. 7), read-out: EC50 virus production, CHIKV WT) it was 9.15 ± 1.62 µM; in [15] it was 10 ± 0.64 µM; in series [1], 52.3 µM. In addition, the half-maximal effective concentration (EC50) in series [4] is greater than 100 µM; in series [5], greater than 100 µM; in [6], greater than 100 µM; in [7] it was greater than 10 µM; in series [22] (Chikungunya virus, NHDF, MOI 0.1 FFU/cell, 24 hpi, in-house synthesized compound), 11.6 µM; in series [24] it was 5.22 ± 1.11 µM. The EC50 was greater than 100 µM in series [26], greater than 100 µM in series [9], 5.3 µM in series [10] and 13.6 ± 0.16 µM in series [31]. Further, in [14], the “Effect on RNA replication (GLuc) in trans-replicase assay, CHIKV” value is “suppressed replication”. In addition, the “Effect on RNA replication (GLuc) in trans-replicase assay, EEEV” value in series [16] is “effectively inhibited”. Besides, the inhibition at 5 µM in series [2] was found to be 88.7%. The CC50 in series [3] and in series [8] was greater than 100 µM each time. Also, in series [17], the “Effect on RNA replication (GLuc) in trans-replicase assay, MAYV” value was “no significant effect”. For the same compound, the “Effect on RNA replication (GLuc) in trans-replicase assay, SINV” value in [18] is on record as “no significant effect”. For the same compound, the “Effect on RNA replication (GLuc) in trans-replicase assay, ONNV” value in series [19] is given as “suppressed replication”. Also, the “Effect on RNA replication (GLuc) in trans-replicase assay, SFV” value in [20] is recorded as “no significant effect”. Moreover, the “Effect on RNA replication (GLuc) in trans-replicase assay, RRV” value in series [21] is “suppressed replication”. Further, the “selectivity index (SI = CC50/EC50)” value in series [22] (NHDF cells) is on record as greater than 43. In addition, the CC50 at 24 h in [23] and in [27] was greater than 500 µM throughout. Also, the “Reduction of virus titers at P1 compared with DMSO-treated controls” value in series [25] is on record as 1 log. Moreover, the “Time-of-addition profile (stage of replication targeted)” value in series [28] is on record as “act on a stage after viral entry”. For the same compound, the “Effect on RNA replication (GLuc) in trans-replicase assay, BFV” value in series [29] is “effectively inhibited”. The “Effect on RNA replication (GLuc) in trans-replicase assay, VEEV” value in series [30] is recorded as “did not show significant VEEV inhibition”.

Regarding `CCNc1nc(C)cc(N2CCN(C(=O)c3cc(Cl)ccc3OC)CC2)n1` [GAP-1350926], the inhibition at 5 µM in series [2] is 82.1%.

For `CCNc1nc(C)cc(N2CCN(C(=O)c3ccccc3Br)CC2)n1` [GAP-1354666], the inhibition at 5 µM in series [2] is 82.5%.

For `CCNc1nc(C)cc(N2CCN(C(=O)c3ccccc3Cl)CC2)n1` [GAP-1358555], the inhibition at 5 µM in [2] worked out at 85.8%.

On to `CCNc1nc(C)cc(N2CCN(C(=O)c3ccc(F)cc3Cl)CC2)n1` [GAP-1358964], for which the inhibition at 5 µM in series [2] turned out to be 91.6%.
